Paper PMC7106726, “Robust high-throughput assays to assess discrete steps in ubiquitination and related cascades” (BMC Molecular and Cell Biology, 2020)
Read-outs that look alike come from different tables or passages of the source.

Assays:
FLAG-Uba1 [1] = target: T1, FLAG-Uba1 (Homo sapiens, UniProt P22314); experiment: AlphaScreen Uba1~ubiquitin thioester formation; format: biochemical
T1 construct: GST- and FLAG-tagged human Uba1 in pBJ842, expressed in S. cerevisiae BJ5654, GST cleaved with PreScission protease, FLAG tag kept
T1 sequence (P22314 2-1058): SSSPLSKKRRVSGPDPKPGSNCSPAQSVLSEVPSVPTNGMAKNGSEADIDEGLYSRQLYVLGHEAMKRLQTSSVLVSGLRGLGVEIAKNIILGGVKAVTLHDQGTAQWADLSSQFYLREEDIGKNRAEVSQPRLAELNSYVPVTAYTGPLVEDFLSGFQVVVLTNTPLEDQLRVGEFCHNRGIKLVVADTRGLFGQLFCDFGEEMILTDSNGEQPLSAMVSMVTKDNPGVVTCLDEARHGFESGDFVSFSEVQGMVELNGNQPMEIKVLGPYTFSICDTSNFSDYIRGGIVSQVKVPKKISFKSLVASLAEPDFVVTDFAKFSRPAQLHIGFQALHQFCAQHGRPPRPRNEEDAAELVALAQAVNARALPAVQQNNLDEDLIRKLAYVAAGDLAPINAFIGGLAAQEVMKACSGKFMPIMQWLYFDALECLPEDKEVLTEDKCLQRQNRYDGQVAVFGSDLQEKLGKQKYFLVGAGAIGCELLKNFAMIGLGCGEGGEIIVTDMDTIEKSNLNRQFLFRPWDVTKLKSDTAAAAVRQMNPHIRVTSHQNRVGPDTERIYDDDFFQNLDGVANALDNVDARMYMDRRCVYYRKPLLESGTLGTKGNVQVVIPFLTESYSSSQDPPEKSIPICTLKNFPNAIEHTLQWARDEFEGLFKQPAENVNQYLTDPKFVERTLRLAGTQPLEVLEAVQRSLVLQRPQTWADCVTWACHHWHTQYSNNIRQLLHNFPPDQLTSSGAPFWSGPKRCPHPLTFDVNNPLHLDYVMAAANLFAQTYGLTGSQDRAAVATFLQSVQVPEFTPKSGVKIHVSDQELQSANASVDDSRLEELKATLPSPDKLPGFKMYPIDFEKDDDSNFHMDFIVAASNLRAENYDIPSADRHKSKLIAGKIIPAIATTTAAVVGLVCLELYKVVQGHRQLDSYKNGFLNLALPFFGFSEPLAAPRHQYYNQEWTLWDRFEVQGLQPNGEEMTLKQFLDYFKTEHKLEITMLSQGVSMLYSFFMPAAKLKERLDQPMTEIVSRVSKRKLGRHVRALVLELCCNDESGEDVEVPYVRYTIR

FLAG-Uba1 [2] = target: T1, FLAG-Uba1; experiment: AlphaScreen Uba1~ubiquitin thioester formation; format: biochemical; conditions: read-out: IC50for inhibition of PCNA ubiquitination (Alpha)
Description: AlphaScreen Uba1~ubiquitin thioester formation on FLAG-Uba1

[3] = read-out: IC50for inhibition of Uba1~Ub thioester formation (Alpha)
[4] = read-out: IC50for inhibition of PCNA ubiquitination (Alpha)

| Compound | IC50 (FLAG-Uba1 [1]; [3]) [µM] | other results |
| --- | --- | --- |
| O=C(O[C@@H]1Cc2c(O)cc(O)cc2O[C@@H]1c1ccc(O)c(O)c1)c1cc(O)c(O)c(O)c1 [ECG] | 0.769 |  |
| CCCCCCCCOC(=O)c1cc(O)c(O)c(O)c1 [OG] |  | IC50 (FLAG-Uba1 [1]; 15 min preincubation, biotin-ubiquitin, 2 mM ATP, 8 mM MgCl2, pH 7.5, 25 °C, 30 min, 1% DMSO, read-out: IC50for inhibition of Uba1~Ub thioester formation (Alpha)): 13.4 µM |
| O=c1c(O)c(-c2cc(O)c(O)c(O)c2)oc2cc(O)cc(O)c12 [Myr] | 1.59 |  |
| O=C1c2c(O)cc(O)cc2O[C@H](c2cc(O)c(O)c(O)c2)[C@H]1O [DM] | 27.5 |  |
| Oc1cc(O)c2c(c1)O[C@H](c1ccc(O)c(O)c1)[C@@H](O)C2 [Cat] |  | IC50 (FLAG-Uba1 [1]; read-out: IC50for inhibition of PCNA ubiquitination (Western blot) [19]): > 500 µM |
| Oc1cc(O)c2c(c1)O[C@H](c1ccc(O)c(O)c1)[C@H](O)C2 [EC] |  | IC50 (FLAG-Uba1 [1]; [4]): > 500 µM |
| CCCCCCCCCCCCOC(=O)c1cc(O)c(O)c(O)c1 [DG] | 44.4 |  |
| O=C(O)c1cc(O)c(O)c(O)c1 [GA] |  | IC50 (FLAG-Uba1 [2]): > 500 µM |
| CCCOC(=O)c1cc(O)c(O)c(O)c1 [PG] |  | IC50 (FLAG-Uba1 [1]; [4]): > 500 µM |
| Oc1cc(O)c2c(c1)O[C@H](c1cc(O)c(O)c(O)c1)[C@H](O)C2 [EGC] | 5.96 |  |
